Experimental data as given in patent publication US8846699B2, “Quinazoline derivatives as a multiplex inhibitor and method for the preparation thereof” (Hanmi Pharm. Co., Ltd., priority 2005, dated 2014).
pIC50: −log10 of the molar value.

Legend:
[1] = test system: skin cancer cell line, A431; assay: Inhibitory effect on growth of cancer cell line A431, SRB; format: cell-based; conditions: overexpressed EGFR1 (HER-1)
Text: (§1) A skin cancer cell line, A431 (ATCC: CRL-1555), a breast cancer cell line, SK-Br3 (ATCC: HTB-30), and a colon and rectal cancer cell line, SW-620 (ATCC: CCL-227) were used to test the degrees of cancer cell growth inhibition using a culture medium, DEME (Dulbecco's Modified Eagle's Medium, JBI) including 4.5 g/l of glucose and 1.5 g/l of sodium bicarbonate and supplemented with 10% FBS (fetal bovine serum, JBI).
(§2) The cancer cell lines stored in a liquid nitrogen tank were each quickly thawed at 37° C., and centrifuged to remove the medium. The resulting cell pellet was mixed with a culture medium, incubated in a culture flask at 37° C. under 5% CO2 for 2 to 3 days, and the medium was removed. The remaining cells were washed with DPBS (Dulbecco's Phosphate Buffered Saline, JBI) and separated from the flask by using Trypsin-EDTA solution, and the separated cells were diluted with a culture medium to a concentration of 1.0×10^6 cells/ml in case of A431 and SW-620, and 2.0×10^6 cells/ml in case of SK-Br3. 100 μl of the diluted cell solution was added to each well of a 96-well plate, which was incubated at 37° C. under 5% CO2 for 1 day.
(§3) In case that the test compound was not soluble in DMSO, a small amount of 1% HCl was added thereto and treated in a 40° C. water bath for 30 mins until complete dissolution was attained. The test compound solution was diluted with a culture medium to a final concentration of 10 μM, and then diluted 10 times serially to 10^−4. The final concentration of DMSO was less than 1%, and the control compounds of Test Example 1 were used at a concentration of 0.0001 to 10 μM.
(§4) The medium was removed from each well of the 96-well microplate, 100 μl of a diluted test compound solution was added to each well holding cultured cells, and the microplate was incubated at 37° C. under 5% CO2 for 72 hours. After removing the medium from the plate, 50 μl of 10% trichloroacetic acid was added to each well, and the plate was kept at 37° C. for 1 hour to fix the cells to the bottom of the plate. 10% trichloroacetic acid was removed from each well, the plate was dried, 100 μl of an SRB (Sulforhodamine-B, Sigma) dye solution was added thereto, and reacted for 10 mins. The SRB dye solution was prepared by dissolving SRB in 1% acetic acid to a concentration of 0.4%. After removing the dye solution, the plate was washed with water, and dried. When the dye solution was not removed by water, 1% acetic acid was used.
(§5) 150 μl of 10 mM trisma base (Sigma) was added to each well, and the absorbance at 570 nm was determined with a microplate reader (Molecular device).

EGFR1 (HER-1) = EGFR1 (HER-1) (Homo sapiens (Human), UniProt P00533); assay: EGFR1 (HER-1) enzyme assay, fluorescence polarization; format: biochemical; conditions: 100 μM ATP, poly(Glu, Tyr) substrate
[2] = test system: colon and rectal cancer cell line, SW-620; assay: Inhibitory effect on growth of cancer cell line SW-620, SRB; format: cell-based; conditions: not having overexpressed EGFR and EGFR2
Text: as §1, §2, §3, §4, §5

[3] = test system: Human Umbilical Vein Endothelial Cell (HUVEC); assay: Inhibitory effect on growth of human umbilical vein endothelial cell (HUVEC), MTS; format: cell-based; conditions: 10 ng/ml VEGF, absorbance 490 nm
Protocol: HUVECs (Young Science, Inc) were suspended in a culture medium, EBM-2 (Endothelial Basic Media, Cambrex) supplemented with 2% bovine serum (Cambrex) and auxiliary additives for HUVEC culture (e.g., EGF, VEGF, FGF, etc., Cambrex), inoculated into a culture flask coated with 1% gelatin, and incubated in an incubator at 37° C. under 5% CO2 and 100% humidity.
100 μl of 5% bovine serum medium containing 10 ng/ml of vascular endothelial growth factor (VEGF) and auxiliary additives, while excluding other growth factors was added to each well of a 96-well plate. […] DMSO (Dimethylsulfoxide) was used to dissolve the test compounds, and the final concentration of DMSO was less than 1%.
100 μl of the diluted cell solution was added to each well of the 96-well plate, which was incubated in an incubator for 96 hours.
Then, 20 μl of MTS ([…], Promega) solution was added to each well of the plate, and the plate was incubated in an incubator for 4 hours to induce discoloration. After 4 hours, the pellets were dissolved by way of a thorough shaking, and the absorbance at 490 nm was determined.

[4] = test system: breast cancer cell line, SK-Br3; assay: Inhibitory effect on growth of cancer cell line SK-Br3, SRB; format: cell-based; conditions: overexpressed EGFR2 (HER-2)
Text: as §1, §2, §3, §4, §5

VEGFR2 (KDR) = VEGFR2 (KDR) (Homo sapiens (Human), UniProt P35968); assay: VEGFR2 (KDR) enzyme assay, fluorescence polarization; format: biochemical; conditions: 5 μM ATP, poly(Glu, Tyr) substrate
VEGFR2 (KDR), sequence (P35968 20-1356): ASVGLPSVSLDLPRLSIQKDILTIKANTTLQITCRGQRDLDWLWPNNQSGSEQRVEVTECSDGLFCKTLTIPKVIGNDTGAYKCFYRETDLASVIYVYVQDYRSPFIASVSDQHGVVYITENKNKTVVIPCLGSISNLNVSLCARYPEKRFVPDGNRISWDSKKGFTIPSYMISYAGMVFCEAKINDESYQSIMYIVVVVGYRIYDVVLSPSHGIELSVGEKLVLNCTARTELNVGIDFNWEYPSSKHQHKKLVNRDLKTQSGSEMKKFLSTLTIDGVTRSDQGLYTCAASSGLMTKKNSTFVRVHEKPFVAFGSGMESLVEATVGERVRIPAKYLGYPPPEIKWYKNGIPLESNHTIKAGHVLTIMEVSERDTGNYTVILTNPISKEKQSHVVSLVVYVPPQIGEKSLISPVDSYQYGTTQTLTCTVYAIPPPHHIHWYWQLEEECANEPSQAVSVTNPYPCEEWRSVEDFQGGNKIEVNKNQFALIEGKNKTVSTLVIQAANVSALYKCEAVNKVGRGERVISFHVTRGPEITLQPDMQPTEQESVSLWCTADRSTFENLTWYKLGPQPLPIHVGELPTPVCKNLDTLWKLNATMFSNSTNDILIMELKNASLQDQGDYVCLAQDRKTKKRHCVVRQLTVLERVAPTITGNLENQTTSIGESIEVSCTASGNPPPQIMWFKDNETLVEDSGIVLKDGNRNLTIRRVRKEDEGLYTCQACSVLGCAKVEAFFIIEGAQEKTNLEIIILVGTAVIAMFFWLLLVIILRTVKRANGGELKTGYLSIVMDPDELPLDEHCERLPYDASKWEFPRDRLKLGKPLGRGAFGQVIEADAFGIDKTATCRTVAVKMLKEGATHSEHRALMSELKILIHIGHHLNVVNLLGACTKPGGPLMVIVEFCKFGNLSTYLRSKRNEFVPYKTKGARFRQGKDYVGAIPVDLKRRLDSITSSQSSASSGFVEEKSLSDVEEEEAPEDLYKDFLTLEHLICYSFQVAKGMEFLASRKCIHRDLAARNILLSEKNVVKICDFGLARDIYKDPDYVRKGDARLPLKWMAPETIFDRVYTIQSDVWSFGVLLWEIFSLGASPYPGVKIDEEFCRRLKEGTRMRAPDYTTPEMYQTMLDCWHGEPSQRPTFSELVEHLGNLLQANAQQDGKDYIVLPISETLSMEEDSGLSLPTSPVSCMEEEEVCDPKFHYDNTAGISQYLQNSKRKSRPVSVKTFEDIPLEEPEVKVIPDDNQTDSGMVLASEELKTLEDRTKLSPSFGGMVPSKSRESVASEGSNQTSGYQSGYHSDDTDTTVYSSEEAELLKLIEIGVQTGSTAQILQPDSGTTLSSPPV
Protocol: VEGFR2 (KDR, Proquinase) enzyme assay (auto-phosphorylation assay) was carried out by using Tyrosine Kinase Assay Kit Green (Panvera). The entire assay was conducted in accordance with VEGFR PTK inhibitor cellular activity test S.O.P.
A typical kinase inhibition reaction requires a protein tyrosine kinase, a suitable buffer solution system, a peptide substrate and ATP. In the present VEGFR tyrosine kinase assay, a buffer solution system containing 20 mM HEPES (pH 7.4), 5 mM MgCl2 and 2 mM MnCl2; 50 μM Na3VO4; 200 ng/10 μl VEGFR (Proquinase); 5 μM ATP; and 10 ng/ml poly(Glu, Tyr) (4:1, Sigma) as a substrate were used.
The compounds of Test Example 1 were used as control compounds at a concentration of 0.0001 to 10 μM. After 10 min, 10 μl of poly(Glu, Tyr) as a substrate was added to each well, and 10 μl of ATP was added thereto to initiate kinase reaction. The plate was incubated at room temperature for 1 hour, and 10 μl of 100 mM EDTA was added to each well to terminate the kinase reaction.
The added EDTA was mixed for 5 min. Thereafter, 10 μl of 10× anti-phosphotyrosine antibody (Panvera), 10 μl of 10×PTK Green Tracer (Panvera) and 30 μl of FP dilution buffer (Panvera) were added thereto, and the plate was incubated in a dark room at room temperature for 30 min.

Row | Compound | pIC50 ([1]; 72 hours) | pIC50 (EGFR1 (HER-1)) | pIC50 ([2]; 72 hours) | pIC50 ([4]; 72 hours) | pIC50 (VEGFR2 (KDR)) | pIC50 ([1]; Homo sapiens, A-431, 72 h) | pIC50 ([2]; Homo sapiens, 72 h) | pIC50 ([4]; Homo sapiens, SK-BR-3, 72 h) | pIC50 ([3]; 96 hours) | pIC50 ([3]; Homo sapiens, 96 h)
1 | N-{2-[6-acryloylamino-4-(4-bromo-3-chloro-2-fluoro-phenylamino)-quinazolin-7-yloxy]-ethyl}-4-dimethylamino-butylamide [Example 148] | 7.52 | 7.55 | 5.63 | 7.40 | 6.69 | – | – | – | 6.46 | –
2 | C=CC(=O)Nc1cc2c(Nc3ccc(Br)cc3F)ncnc2cc1OCCNC(=O)C1CC1 [Example 21, cyclopropane carboxylic acid {2-[6-acrylamino-4-(4-bromo-2-fluoro-phenylamino)-quinazolin-7-yloxy]-ethyl}-amide] | – | 8.10 | – | – | 6.29 | 7.70 | 5.10 | 7.44 | – | 6.02
3 | C=CNC(=O)NCCOc1cc2ncnc(Nc3ccc(Br)cc3F)c2cc1NC(=O)C=C [Example 39, N-{4-(4-bromo-2-fluoro-phenylamino)-7-[2-(3-vinyl-ureido)-ethoxy]-quinazolin-6-yl}-acrylamide] | – | 7.54 | – | – | 6.58 | 7.55 | 5.34 | 6.75 | – | 6.49
4 | C=CC(=O)Nc1cc2c(Nc3ccc(Br)cc3F)ncnc2cc1OCC(C)NC(=O)CCN(CC)CC (stereo not shown) [Example 155, N-{4-(4-bromo-2-fluoro-phenylamino)-7-[2-(3-diethylamino-propionylamino)-propoxy]-quinazolin-6-yl}-acrylamide] | – | 7.62 | – | – | 6.60 | 7.46 | 5.02 | 6.96 | – | 6.50
5 | C=CC(=O)Nc1cc2c(Nc3ccc(Br)cc3Cl)ncnc2cc1OCCNC(C)=O [Example 115, N-[7-(2-acetylamino-ethoxy)-4-(4-bromo-2-chloro-phenylamino)-quinazolin-6-yl]-acrylamide] | – | 7.38 | – | – | 6.07 | 7.35 | 5.00 | 6.05 | – | 6.03
6 | C=CC(=O)Nc1cc2c(Nc3ccc(Br)cc3F)ncnc2cc1OCCNC(=O)C=CCC [Example 52, pent-2-enoic acid {2-[6-acryloylamino-4-(4-bromo-2-fluoro-phenylamino)-quinazolin-7-yloxy]-ethyl}-amide] | – | 7.44 | – | – | 6.45 | 7.43 | 5.00 | 7.08 | – | 6.46
7 | C=CC(=O)Nc1cc2c(Nc3ccc(Br)cc3F)ncnc2cc1OCC1CCN(C(=O)NC(C)(C)C)CC1 [Example 11, 4-[6-acryloylamino-4-(4-bromo-2-fluoro-phenylamino)-quinazolin-7-yloxymethyl]-piperidin-1-carboxylic acid t-butylamide] | – | 7.85 | – | – | 7.30 | 7.23 | 5.25 | 6.34 | – | 7.39
8 | C=CC(=O)Nc1cc2c(Nc3ccc(Br)cc3F)ncnc2cc1OCCNC(=O)C(CO)N(C)C (stereo not shown) [Example 162, N-{4-(4-bromo-2-fluoro-phenylamino)-7-[2-(2-dimethylamino-3-hydroxy-propionylamino)-ethoxy]-quinazolin-6-yl}-acrylamide] | – | – | – | – | 6.10 | 6.81 | 5.00 | 6.85 | – | 6.05
9 | C=CC(=O)Nc1cc2c(Nc3ccc(Br)cc3F)ncnc2cc1OCCNC(=O)c1ccc[nH]1 [Example 99, 1H-pyrrole-2-carboxylic acid {2-[6-acryloylamino-4-(4-bromo-2-fluoro-phenylamino)-quinazolin-7-yloxy]-ethyl}-amide] | – | – | – | – | 6.00 | 6.39 | 5.00 | 5.48 | – | 6.00

Continued by rising pIC50 (VEGFR2 (KDR)), values first:

Row | pIC50 ([1]; 72 hours) | pIC50 (EGFR1 (HER-1)) | pIC50 ([2]; 72 hours) | pIC50 ([4]; 72 hours) | pIC50 (VEGFR2 (KDR)) | pIC50 ([1]; Homo sapiens, A-431, 72 h) | pIC50 ([2]; Homo sapiens, 72 h) | pIC50 ([4]; Homo sapiens, SK-BR-3, 72 h) | Compound | pIC50 ([3]; 96 hours) | pIC50 ([3]; Homo sapiens, 96 h)
10 | 6.62 | – | 5.00 | 6.18 | 6.01 | – | – | – | N-{2-[6-acryloylamino-4-(4-bromo-2-fluoro-phenylamino)-quinazolin-7-yloxy]-ethyl}-malonic acid ethylester [Example 69] | 6.02 | –
11 | – | – | – | – | 6.13 | – | 6.14 | 6.43 | C=CC(=O)Nc1cc2c(Nc3ccc(Br)cc3F)ncnc2cc1OCCNC(=O)CCN [Example 62, N-[7-[2-(3-amino-propionylamino)-ethoxy]-4-(4-bromo-2-fluoro-phenylamino)-quinazolin-6-yl]-acrylamide] | – | 6.16
12 | – | – | – | – | 6.43 | 7.47 | 5.00 | 6.78 | C=CC(=O)Nc1cc2c(Nc3ccc(Br)cc3F)ncnc2cc1OCCNS(C)(=O)=O [Example 33, N-[4-(4-bromo-2-fluoro-phenylamino)-7-(2-methanesulfonylamino-ethoxy)-quinazolin-6-yl]-acrylamide] | – | 6.41
13 | – | 6.67 | – | – | 6.59 | 6.69 | 5.55 | 7.01 | C=CC(=O)Nc1cc2c(Nc3ccc(Br)c(Cl)c3F)ncnc2cc1OCCNC(=O)COC [Example 146, N-{4-(4-bromo-3-chloro-2-fluoro-phenylamino)-7-[2-(2-methoxy-acetylamino)-ethoxy]-quinazolin-6-yl}-acrylamide] | – | 6.44
14 | – | – | – | – | 6.90 | 7.59 | 5.00 | 6.73 | C=CC(=O)Nc1cc2c(Nc3c(F)cc(Br)cc3F)ncnc2cc1OCCNC(C)=O [Example 120, N-[7-(2-acetylamino-ethoxy)-4-(4-bromo-2,6-difluoro-phenylamino)-quinazolin-6-yl]-acrylamide] | – | 6.57
15 | – | – | – | – | 6.94 | 7.72 | 5.02 | 7.00 | C=CC(=O)Nc1cc2c(Nc3ccc(Cl)cc3F)ncnc2cc1OCCNC(C)=O [Example 112, N-[7-(2-acetylamino-ethoxy)-4-(4-chloro-2-fluoro-phenylamino)-quinazolin-6-yl]-acrylamide] | – | 6.72
